Assay results reported in patent US20220380368A1, “SPIROCYCLIC ANDROGEN RECEPTOR PROTEIN DEGRADERS” (THE REGENTS OF THE UNIVERSITY OF MICHIGAN, priority 2019, published 2022).

Each compound was assayed against T1, AR protein (Homo sapiens, UniProt P10275) (assay: Western blotting analysis of AR protein levels in VCaP cells, band quantification, DC50/DC90). Details: VCaP cells, Table 6; read-out: VCaP DC50.
T1 construct: endogenous in cells; host or cells: VCaP
T1 sequence (P10275 1-920): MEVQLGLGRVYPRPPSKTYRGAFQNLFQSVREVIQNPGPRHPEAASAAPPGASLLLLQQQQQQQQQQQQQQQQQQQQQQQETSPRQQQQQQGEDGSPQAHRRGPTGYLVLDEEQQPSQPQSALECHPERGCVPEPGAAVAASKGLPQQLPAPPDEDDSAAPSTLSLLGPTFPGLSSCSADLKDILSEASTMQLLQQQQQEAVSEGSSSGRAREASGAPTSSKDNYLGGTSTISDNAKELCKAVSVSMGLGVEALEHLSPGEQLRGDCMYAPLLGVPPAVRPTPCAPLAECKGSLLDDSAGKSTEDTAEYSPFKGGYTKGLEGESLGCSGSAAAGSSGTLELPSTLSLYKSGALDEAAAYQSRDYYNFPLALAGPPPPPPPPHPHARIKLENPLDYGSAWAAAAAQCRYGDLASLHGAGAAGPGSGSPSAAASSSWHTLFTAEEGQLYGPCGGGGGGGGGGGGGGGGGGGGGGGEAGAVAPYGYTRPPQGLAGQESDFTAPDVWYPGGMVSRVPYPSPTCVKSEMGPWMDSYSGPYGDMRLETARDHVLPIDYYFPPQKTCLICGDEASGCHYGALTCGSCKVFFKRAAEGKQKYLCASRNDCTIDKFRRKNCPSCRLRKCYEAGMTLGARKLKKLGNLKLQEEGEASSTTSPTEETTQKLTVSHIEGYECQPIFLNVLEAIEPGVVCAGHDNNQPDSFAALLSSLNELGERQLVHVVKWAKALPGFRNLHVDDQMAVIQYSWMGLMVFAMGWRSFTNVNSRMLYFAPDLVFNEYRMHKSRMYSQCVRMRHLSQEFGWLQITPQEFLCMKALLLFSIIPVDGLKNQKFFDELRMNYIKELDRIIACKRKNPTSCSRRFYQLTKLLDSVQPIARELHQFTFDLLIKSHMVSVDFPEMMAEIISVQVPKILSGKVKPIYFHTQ
Assay type: cell-based
Experimental: The appropriate cell line, e.g., prostate cancer LNCaP, Vcap, or 22RV1 cell line, was treated with Compounds of the Disclosure as indicated. The treated cells were lysed with RIPA buffer. […] GAPDH was used as a loading control.
Bands were quantified with ImageJ software. The relative numbers of each band obtained from normalization with its corresponding GAPDH level were compared with Prism 8 software. The DC50 values were produced from Prism 8, and the DC90 values were calculated with an equation=Bottom+(Top−Bottom)/(1+10^((Log EC50−X)*HillSlope) based on DC50 and Hillslope values.

SMILES	DC50
C[C@H]1CC2(CCN(c3ncc(C(=O)N4CCN(C5CCN(c6cc7c(cc6F)C(=O)N(C6CCC(=O)NC6=O)C7=O)CC5)CC4)cn3)CC2)CN1c1ccc(C#N)c(Cl)c1 (stereo partly drawn) [Cpd. No. 524, 2-chloro-4-((3S)-8-(5-(4-(1-(2-(2,6-dioxopiperidin-3-yl)-6-fluoro-1,3-dioxoisoindolin-5-yl)piperidin-4-yl)piperazine-1-carbonyl)pyrimidin-2-yl)-3-methyl-2,8-diazaspiro[4.5]decan-2-yl)benzonitrile]	< 1 nM
C[C@H]1CC2(CCN(c3ncc(C(=O)N4CCC(N5CCN(c6cc7c(cc6F)C(=O)N(C6CCC(=O)NC6=O)C7=O)CC5)CC4)cn3)CC2)CN1c1ccc(C#N)c(Cl)c1 (stereo partly drawn) [Cpd. No. 525, 2-chloro-4-((3S)-8-(5-(4-(4-(2-(2,6-dioxopiperidin-3-yl)-6-fluoro-1,3-dioxoisoindolin-5-yl)piperazin-1-yl)piperidine-1-carbonyl)pyrimidin-2-yl)-3-methyl-2,8-diazaspiro[4.5]decan-2-yl)benzonitrile]	< 1 nM
C[C@H]1CC2(CCN(c3ncc(C(=O)N4CCC(CN5Cc6cc7c(cc6C5)C(=O)N(C5CCC(=O)NC5=O)C7=O)CC4)cn3)CC2)CN1c1ccc(C#N)c(Cl)c1 (stereo partly drawn) [Cpd. No. 526, 2-chloro-4-((3S)-8-(5-(4-((6-(2,6-dioxopiperidin-3-yl)-5,7-dioxo-3,5,6,7-tetrahydropyrrolo[3,4-f]isoindol-2(1H)-yl)methyl)piperidine-1-carbonyl)pyrimidin-2-yl)-3-methyl-2,8-diazaspiro[4.5]decan-2-yl)benzonitrile]	< 1 nM
C[C@H]1CC2(CCN(c3ccc(C(=O)N4CCC(CN5Cc6cc7c(cc6C5)C(=O)N(C5CCC(=O)NC5=O)C7=O)CC4)cc3F)CC2)CN1c1ccc(C#N)c(Cl)c1 (stereo partly drawn) [Cpd. No. 527, 2-chloro-4-((3S)-8-(4-(4-((6-(2,6-dioxopiperidin-3-yl)-5,7-dioxo-3,5,6,7-tetrahydropyrrolo[3,4-f]isoindol-2(1H)-yl)methyl)piperidine-1-carbonyl)-2-fluorophenyl)-3-methyl-2,8-diazaspiro[4.5]decan-2-yl)benzonitrile]	< 1 nM
C[C@H]1CC2(CCN(c3ccc(C(=O)N4CCN(C5CN(c6cc7c(cc6F)C(=O)N(C6CCC(=O)NC6=O)C7=O)C5)CC4)c(F)c3)CC2)CN1c1ccc(C#N)c(Cl)c1 (stereo partly drawn) [Cpd. No. 530, 2-chloro-4-((3S)-8-(4-(4-(1-(2-(2,6-dioxopiperidin-3-yl)-6-fluoro-1,3-dioxoisoindolin-5-yl)azetidin-3-yl)piperazine-1-carbonyl)-3-fluorophenyl)-3-methyl-2,8-diazaspiro[4.5]decan-2-yl)benzonitrile]	< 1 nM
C[C@H]1CC2(CCN(c3ccc(C(=O)N4CCN(CC5CN(c6cc7c(cc6F)C(=O)N(C6CCC(=O)NC6=O)C7=O)C5)CC4)c(F)c3)CC2)CN1c1ccc(C#N)c(Cl)c1 (stereo partly drawn) [Cpd. No. 531, 2-chloro-4-((3S)-8-(4-(4-((1-(2-(2,6-dioxopiperidin-3-yl)-6-fluoro-1,3-dioxoisoindolin-5-yl)azetidin-3-yl)methyl)piperazine-1-carbonyl)-3-fluorophenyl)-3-methyl-2,8-diazaspiro[4.5]decan-2-yl)benzonitrile]	1 to 10 nM
C[C@H]1CC2(CCN(c3ccc(C(=O)N4CCN(C5CN(c6cc7c(cc6F)C(=O)N(C6CCC(=O)NC6=O)C7=O)C5)CC4)cc3F)CC2)CN1c1ccc(C#N)c(Cl)c1 (stereo partly drawn) [Cpd. No. 532, 2-chloro-4-((3S)-8-(4-(4-(1-(2-(2,6-dioxopiperidin-3-yl)-6-fluoro-1,3-dioxoisoindolin-5-yl)azetidin-3-yl)piperazine-1-carbonyl)-2-fluorophenyl)-3-methyl-2,8-diazaspiro[4.5]decan-2-yl)benzonitrile]	< 1 nM
C[C@H]1CC2(CCN(c3ccc(C(=O)N4CCN(CC5CN(c6cc7c(cc6F)C(=O)N(C6CCC(=O)NC6=O)C7=O)C5)CC4)cc3F)CC2)CN1c1ccc(C#N)c(Cl)c1 (stereo partly drawn) [Cpd. No. 533, 2-chloro-4-((3S)-8-(4-(4-((1-(2-(2,6-dioxopiperidin-3-yl)-6-fluoro-1,3-dioxoisoindolin-5-yl)azetidin-3-yl)methyl)piperazine-1-carbonyl)-2-fluorophenyl)-3-methyl-2,8-diazaspiro[4.5]decan-2-yl)benzonitrile]	< 1 nM
C[C@H]1CC2(CCN(c3ccc(C(=O)N4CCC(CN5Cc6cc7c(cc6C5)C(=O)N(C5CCC(=O)NC5=O)C7=O)CC4)c(F)c3)CC2)CN1c1ccc(C#N)c(Cl)c1 (stereo partly drawn) [Cpd. No. 534, 2-chloro-4-((3S)-8-(4-(4-((6-(2,6-dioxopiperidin-3-yl)-5,7-dioxo-3,5,6,7-tetrahydropyrrolo[3,4-f]isoindol-2(1H)-yl)methyl)piperidine-1-carbonyl)-3-fluorophenyl)-3-methyl-2,8-diazaspiro[4.5]decan-2-yl)benzonitrile]	< 1 nM
C[C@H]1CC2(CCN(c3ccc(C(=O)N4CCN(CC5CN(c6ccc7c(c6)C(=O)N(C6CCC(=O)NC6=O)C7=O)C5)CC4)cc3)CC2)CN1c1ccc(C#N)c(Cl)c1 (stereo partly drawn) [Cpd. No. 535, 2-chloro-4-((3S)-8-(4-(4-((1-(2-(2,6-dioxopiperidin-3-yl)-1,3-dioxoisoindolin-5-yl)azetidin-3-yl)methyl)piperazine-1-carbonyl)phenyl)-3-methyl-2,8-diazaspiro[4.5]decan-2-yl)benzonitrile]	< 1 nM
C[C@H]1CC2(CCN(c3ccc(C(=O)N4CCN(C5CN(c6cc7c(cc6F)C(=O)N(C6CCC(=O)NC6=O)C7=O)C5)CC4)nn3)CC2)CN1c1ccc(C#N)c(Cl)c1 (stereo partly drawn) [Cpd. No. 536, 2-chloro-4-((3S)-8-(6-(4-(1-(2-(2,6-dioxopiperidin-3-yl)-6-fluoro-1,3-dioxoisoindolin-5-yl)azetidin-3-yl)piperazine-1-carbonyl)pyridazin-3-yl)-3-methyl-2,8-diazaspiro[4.5]decan-2-yl)benzonitrile]	< 1 nM
C[C@H]1CC2(CCN(c3ccc(C(=O)N4CC(N5CCN(c6cc7c(cc6F)C(=O)N(C6CCC(=O)NC6=O)C7=O)CC5)C4)nn3)CC2)CN1c1ccc(C#N)c(Cl)c1 (stereo partly drawn) [Cpd. No. 537, 2-chloro-4-((3S)-8-(6-(3-(4-(2-(2,6-dioxopiperidin-3-yl)-6-fluoro-1,3-dioxoisoindolin-5-yl)piperazin-1-yl)azetidine-1-carbonyl)pyridazin-3-yl)-3-methyl-2,8-diazaspiro[4.5]decan-2-yl)benzonitrile]	1 to 10 nM
C[C@H]1CC2(CCN(c3ccc(C(=O)N4CC(N5CCN(c6cc7c(cc6F)C(=O)N(C6CCC(=O)NC6=O)C7=O)CC5)C4)nc3)CC2)CN1c1ccc(C#N)c(Cl)c1 (stereo partly drawn) [Cpd. No. 538, 2-chloro-4-((3S)-8-(6-(3-(4-(2-(2,6-dioxopiperidin-3-yl)-6-fluoro-1,3-dioxoisoindolin-5-yl)piperazin-1-yl)azetidine-1-carbonyl)pyridin-3-yl)-3-methyl-2,8-diazaspiro[4.5]decan-2-yl)benzonitrile]	1 to 10 nM
C[C@H]1CC2(CCN(c3ccc(C(=O)N4CC(N5CCN(c6cc7c(cc6F)C(=O)N(C6CCC(=O)NC6=O)C7=O)CC5)C4)cn3)CC2)CN1c1ccc(C#N)c(Cl)c1 (stereo partly drawn) [Cpd. No. 539, 2-chloro-4-((3S)-8-(5-(3-(4-(2-(2,6-dioxopiperidin-3-yl)-6-fluoro-1,3-dioxoisoindolin-5-yl)piperazin-1-yl)azetidine-1-carbonyl)pyridin-2-yl)-3-methyl-2,8-diazaspiro[4.5]decan-2-yl)benzonitrile]	1 to 10 nM
